Where only a bound is given, the exact number is not on record here.

This test has as its target T1, Histone-lysine N-methyltransferase EHMT2 (Homo sapiens, UniProt Q96KQ7).
T1 sequence (Q96KQ7 whole entry): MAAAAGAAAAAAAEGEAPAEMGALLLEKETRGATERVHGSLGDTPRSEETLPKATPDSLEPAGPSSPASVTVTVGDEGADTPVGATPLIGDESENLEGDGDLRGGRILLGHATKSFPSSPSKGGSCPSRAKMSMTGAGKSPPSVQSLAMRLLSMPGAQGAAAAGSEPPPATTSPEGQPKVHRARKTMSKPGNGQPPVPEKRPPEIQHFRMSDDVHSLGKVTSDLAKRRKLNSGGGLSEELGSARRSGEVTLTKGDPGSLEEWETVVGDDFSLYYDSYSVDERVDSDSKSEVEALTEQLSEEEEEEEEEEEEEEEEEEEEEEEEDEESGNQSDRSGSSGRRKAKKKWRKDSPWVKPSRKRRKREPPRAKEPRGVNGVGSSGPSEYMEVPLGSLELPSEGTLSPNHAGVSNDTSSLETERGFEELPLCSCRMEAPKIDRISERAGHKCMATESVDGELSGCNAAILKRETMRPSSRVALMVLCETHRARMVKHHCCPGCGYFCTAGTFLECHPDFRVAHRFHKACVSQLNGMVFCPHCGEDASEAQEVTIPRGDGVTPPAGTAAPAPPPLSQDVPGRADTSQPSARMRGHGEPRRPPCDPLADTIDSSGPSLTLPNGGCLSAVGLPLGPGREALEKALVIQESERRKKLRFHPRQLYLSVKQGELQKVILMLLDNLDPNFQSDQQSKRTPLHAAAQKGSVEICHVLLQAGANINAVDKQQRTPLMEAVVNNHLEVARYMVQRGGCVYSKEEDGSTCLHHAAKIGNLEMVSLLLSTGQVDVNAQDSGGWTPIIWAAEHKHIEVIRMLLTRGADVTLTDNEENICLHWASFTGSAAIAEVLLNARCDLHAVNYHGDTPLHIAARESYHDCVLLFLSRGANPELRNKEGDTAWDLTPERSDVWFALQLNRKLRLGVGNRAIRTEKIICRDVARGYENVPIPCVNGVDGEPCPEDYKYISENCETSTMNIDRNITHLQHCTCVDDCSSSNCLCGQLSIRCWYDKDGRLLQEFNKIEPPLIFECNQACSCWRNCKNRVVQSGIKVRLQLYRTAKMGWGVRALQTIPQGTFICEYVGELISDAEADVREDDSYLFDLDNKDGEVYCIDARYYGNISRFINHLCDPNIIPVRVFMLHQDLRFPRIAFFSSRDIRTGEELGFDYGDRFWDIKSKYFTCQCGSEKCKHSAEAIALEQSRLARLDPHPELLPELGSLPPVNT
Kind of test: Enzymatic Activity Assay: For the assay, the following buffer was used to set up reactions: 50 mM Tris-HCl pH9, 50 mM NaCl, 0.01% Tween-20 and 1 mM DTT (added fresh prior to starting the reactions). The assay is set up by adding a final concentration of 0.15 nM G9a, 15 uM S-adenosyl-methionine and 100 nM biotinylated histone 3 peptide (1-21). The reaction is incubated at rt for 1 hour and subsequently quenched with the acceptor beads (anti-H3k9me2 AlphaLISA acceptor beads, Perkin Elmer #AL117) at a final concentration of 20 ug/mL. The acceptor beads are incubated for 1 hour. After 1 hour, the donor beads are added at a final concentration of 20 ug/mL (Alpha Streptavidin donor beads, PerkinElmer #6760002). Donor beads are incubated for 0.5 hours. Both donor and acceptor beads are resuspended in AlphaLISA 5X Epigenetics Buffer 1 Kit (PerkinElmer #AL008) prior to addition to the reaction. All manipulations and incubations with the donor and acceptor beads are done in subdued light. Signal is detected in an EnVision plate reader in Alpha mode. Background: Alpha assays give light when donor and acceptor beads are brought close together.

`COc1cc2nc3c(c(NC4CCN(C5CCOC5)CC4)c2cc1OC)CCC3` (centres undefined) returned an IC50 of 617 nM.
As for `COc1cc2nc3c(c(NCC4CN(c5ccccc5F)C4)c2cc1OC)CCC3`, the figure is 1740 nM.
As for `COc1cc2nc3c(c(NC4CCN(C(C)C)CC4)c2cc1OC)CCCC3`, the figure is ≥ 10000 nM; as for `COc1cc2nc3c(c(NC4CC(C)(C)NC(C)(C)C4)c2cc1OC)CCC3`, 53.7 nM.

For orientation: IC50 means the concentration needed to halve the response being measured. Low values mean inhibition by little substance, high ones a need for much substance.
